From patent US20150343016A1, “CHEMICAL ENTITIES AND THERAPEUTIC USES THEREOF” (The Regents of the University of Colorado, a body corporate, priority 2010, published 2015) come the findings set out here.

Molecules are shown by their SMILES.

Holding throughout (format): in vivo
In experiment [1] the test system is wild type Drosophila larvae. Kind of experiment: Drosophila larval survival to adulthood (eclosion), drug with and without IR, wild type. To be noted: for effect on the killing effect of radiation (+IR versus +both): wild type. On the procedure: (§1) To validate the identification of Bouvardin from the primary screen, the effect of this molecule on Drosophila larvae alone or in combination with radiation were assessed (FIG. 12). The screen was performed using irradiated mutant larvae. Hits from the screen were defined as those that reduced the survival of IRRADIATED larvae compared to the population of drugs being tested (approximately 80 molecules at a time) or compared to DMSO controls in the re-test. A hit could therefore act by enhancing the effect of radiation, or by simply killing larvae as a single agent, or both. To distinguish among these possibilities, hits from the screen were re-tested against larvae with and without irradiation.
(§2) In FIG. 12 survival after each treatment is expressed as the fraction of animals that emerged (“eclosed”) as viable adults. The averages have been normalized to the average fraction eclosed in no IR/drug control for the respective genotype. Error bars extend beyond fractional survival of 1.0 simply because of normalization. (A-C) Fraction eclosed for WT and grp and p53 mutants at 16 uM of Bouvardin, with and without IR. The data are averages of 3-8 biological replicates per sample. Dotted line on each graph denotes expected ‘fraction eclosed’ if drug and IR act additively. IR doses were 4000R for WT and grp and 3000R for p53 because of the higher radiation sensitivity of the latter. (D) Fraction eclosed for Minute mutants and yw controls after exposure to 0 (−IR) and 2000R (+IR) of X-rays. N ranged from 86-207 per genotype per treatment, in 3 biological replicates per sample. *=p<0.01; **=<0.001. 100R=1Gy. Error bar=1 standard deviation.
(§3) The activity of Bouvardin in Drosophila alone or in combination with ionizing radiation (IR) was assessed. Drug concentrations of 10-20 μM were used to approximate the conditions of the original screen. Third instar larvae were irradiated and cultured on medium containing drug. The survival of larvae was quantified 10 days later by measuring the rate of eclosion into adulthood. […] For example, IR alone reduces the eclosion of p53 mutants to 0.63±0.05 and 10 μM of drug reduces it to 0.82±0.15. The combination of Bouvardin and IR reduces eclosion to 0.49, nearly the exact number expected (0.63±0.05×0.82±0.15=0.51±0.10) if the two treatments produced an additive effect. The expected eclosion for additive effect of drug and radiation are denoted with a white dotted line in each graph.
(§4) Wild type flies were of the Sevelin stock. Mutants have been described before. p535A-1-4 results from targeted deletion of the gene, and is maintained and used as homogygotes. grpl (Chk1 mutants) results from a p-element insertion and is a genetic null. Homozygotes of the latter were identified by the lack of GFP marker on the balancer chromosome. Minute mutants were of the genotypes y[1]w[*]; P[w[+mC]=lacW]RpS131/CyO and P[lacW]RpL36G0471 w67c23/FM7a. Because Minute mutants were in yw or w background, y1w1 (Bloomington stock #1495) was used as ‘wild type’ control in these experiments.
Feeding stage 3rd instar larvae were irradiated as previously described (2). Briefly, 120 hr old larvae were rinsed to remove food and passed through sizing sieves to obtain animals of uniform size. Larvae were placed in a Petri dish and irradiated using a TORREX X-ray generator, set at 115 kV and 5 mA (producing 2.4 Rads/sec or 1.44 Gy/min) Irradiated larvae were then cultured on cornmeal-agar media (2) containing drug or DMSO carrier. […]

Experiment [2] deals with grp (Chk1) mutant Drosophila larvae. Kind of experiment: Drosophila larval survival to adulthood (eclosion), drug with and without IR, grp (Chk1) mutants. To be noted: for manner in which drug and radiation act together: grp (Chk1) mutants. On the procedure: as §1, §2
The activity of Bouvardin in Drosophila alone or in combination with ionizing radiation (IR) was assessed. Drug concentrations of 10-20 μM were used to approximate the conditions of the original screen. Third instar larvae were irradiated and cultured on medium containing drug. The survival of larvae was quantified 10 days later by measuring the rate of eclosion into adulthood. […]

In experiment [3] the test system is p53 mutant Drosophila larvae. Put plainly: Drosophila larval survival to adulthood (eclosion), drug with and without IR, p53 mutants. To be noted: p53 mutants; for eclosion expected if the two treatments produced an additive effect: Bouvardin and IR. On the procedure:
as §1, §2, §3, §4
Feeding stage 3rd instar larvae were irradiated as previously described (2). Briefly, 120 hr old larvae were rinsed to remove food and passed through sizing sieves to obtain animals of uniform size. Larvae were placed in a Petri dish and irradiated using a TORREX X-ray generator, set at 115 kV and 5 mA (producing 2.4 Rads/sec or 1.44 Gy/min) Irradiated larvae were then cultured on cornmeal-agar media (2) containing drug or DMSO carrier. In all experiments using human cells, cells in 96-well plates were irradiated with a RS2000 Biological Irradiator (Rad Source Technologies, Inc.) delivering 1 Gy/min.

Consider `COc1ccc(C[C@H]2C(=O)N[C@H](C)C(=O)N(C)[C@@H]3C(=O)N(C)[C@@H](Cc4ccc(O)c(c4)Oc4ccc(cc4)[C@H]3O)C(=O)N[C@@H](C)C(=O)N[C@H](C)C(=O)N2C)cc1` (stereo in doubt) [Bouvardin, bouvardin], for which the “effect on the killing effect of radiation (+IR versus +both)” value was “not wild type” in experiment [1]; “did not significantly reduce survival to adulthood” in experiment [1] (listed as bouvardin); “increased the killing effect of radiation in a statistically significant manner” in experiment [2] (grp mutants, drug 10-20 μM); “increased the killing effect of radiation in a statistically significant manner” in experiment [3] (drug 10-20 μM). In experiment [1] (wild type flies, bouvardin up to 100 μM, no IR), the “effect of drug alone on survival to adulthood” value is “very little effect”. The entries for the “manner in which drug and radiation act together” value in experiment [2], in experiment [2] (listed as bouvardin) and in experiment [3] were “synergistic manner”, “appear to synergize” and “additive manner”, respectively. Also, the “eclosion (fraction eclosed, normalized to no IR/drug control)” value was 0.82±0.15 in experiment [3] (10 μM of drug alone); 0.49 in experiment [3] (combination of Bouvardin and IR). In addition, in experiment [3] (10 mM of drug alone), the eclosion is on record as 0.82. Moreover, the “eclosion expected if the two treatments produced an additive effect” value worked out at 0.51±0.10 in experiment [3] and 0.50 in experiment [3] (listed as bouvardin).
